We go through 9 molecules from US11919902B2, “Aryl-bipyridine amine derivatives as phosphatidylinositol phosphate kinase inhibitors” (HiberCell, Inc., priority 2017, dated 2024).

The target in assay [1] is T1, GST tagged PIP4KtypeIIB (Homo sapiens, UniProt P78356).
T1 construct: made in house; host or cells: E. coli
T1 sequence (P78356 1-416): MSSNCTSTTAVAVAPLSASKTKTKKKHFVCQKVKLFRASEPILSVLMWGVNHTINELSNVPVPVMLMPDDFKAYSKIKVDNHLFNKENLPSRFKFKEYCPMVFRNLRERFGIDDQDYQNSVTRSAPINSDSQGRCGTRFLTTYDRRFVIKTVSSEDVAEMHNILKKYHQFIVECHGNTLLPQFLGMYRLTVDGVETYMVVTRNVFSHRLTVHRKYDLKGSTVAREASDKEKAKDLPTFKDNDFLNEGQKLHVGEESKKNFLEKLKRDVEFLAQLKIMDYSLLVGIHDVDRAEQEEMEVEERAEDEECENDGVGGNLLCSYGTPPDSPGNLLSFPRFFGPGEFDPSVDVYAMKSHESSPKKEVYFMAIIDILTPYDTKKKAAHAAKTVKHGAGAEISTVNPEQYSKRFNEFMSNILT
The assay is described as follows: Trans-FI P kinase assay PIP4K2B (PIP4KtypeIIB inhibition assay). It is filed as biochemical. The following applies: Table 4; compounds listed under IC50 range headings; 100 uM GTP, 5 nM PIP4KIIB; read-out: Trans-FI P kinase assays: PIP4K2B IC50. The gist of the method: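 Purified GST-PIP4KIIB (5 nM final), 1 h preincubation with compound at 27 C, then 2 h reaction with 100 uM GTP and 80 uM PI5P plus DOPE carrier lipid in pH 7.3 HEPES/MgCl2/Triton buffer with 5% DMSO. GDP read by Transcreener FI fluorescence against a calibration curve; IC50 from % no-inhibitor activity vs log concentration.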

Assay [2] addresses T2, GST tagged PIP4KtypeIIA (Homo sapiens, UniProt P48426).
T2 construct: made in house; host or cells: E. coli
T2 sequence (P48426 1-406): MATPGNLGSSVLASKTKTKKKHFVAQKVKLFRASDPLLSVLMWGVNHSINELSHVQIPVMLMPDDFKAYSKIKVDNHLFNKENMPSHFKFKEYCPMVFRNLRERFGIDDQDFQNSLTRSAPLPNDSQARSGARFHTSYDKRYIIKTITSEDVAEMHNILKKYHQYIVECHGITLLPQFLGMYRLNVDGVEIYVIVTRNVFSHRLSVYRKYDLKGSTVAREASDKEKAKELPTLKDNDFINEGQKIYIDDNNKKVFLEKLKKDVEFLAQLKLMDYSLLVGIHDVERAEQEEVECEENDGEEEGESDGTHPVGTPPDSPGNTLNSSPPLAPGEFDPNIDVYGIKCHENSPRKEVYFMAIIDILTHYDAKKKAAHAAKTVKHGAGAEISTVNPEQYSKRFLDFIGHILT
The assay is described as follows: ADP-glo kinase assay PIP4K 2A (PIP4KtypeIIA inhibition assay). It is filed as biochemical. The following applies: Table 3; compounds listed under IC50 range headings; 10 uM ATP, 0.5 nM PIP4KIIA. In outline:
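E. coli-expressed GST-PIP4KtypeIIA (0.5 nM final) was preincubated 1 h at 27 °C with compound (up to 4.8 μM, 5% DMSO) in PI5P/DOPE lipid in 50 mM HEPES pH 7.3 with 10 mM MgCl2. The reaction was started with 10 μM ATP (final) and run 1 h. ADP was read by ADP-Glo luminescence via a calibration curve, and IC50 was taken from % residual activity.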

Assay [3] deals with T3, PIP4K2A (full length protein, SignalChem) (Homo sapiens, UniProt P48426).
T3 construct: 4 nM PIP4K2A (full length protein, SignalChem); purchased SignalChem
T3 sequence (P48426 1-406): T2 sequence (P48426 1-406)
The experiment in a line: Kinase Assay PIP4K2 A (Sprint); ADP-Glo biochemical assay. The following applies: Table 2; compounds listed under IC50 range headings. The gist of the method: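 Compounds (10-point, 3-fold dilutions) were pre-incubated 15 min at RT with an enzyme/substrate mix of 4 nM full-length PIP4K2A and 100 μM PI(5)P diC8 in 20 mM MOPS pH 7.2, 25 mM MgCl2, 0.005% Tween 20. A 60 μM ATP solution was added, reaction 1 h RT; ADP read by ADP-Glo luminescence, IC50 fitted from % inhibition vs DMSO.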

Regarding `COc1ncc(-c2cncc(-c3ccc(N4CCCC4=O)cc3)c2)c2c[nH]nc12` [Example 270, 1-(4-(5-(7-methoxy-2H-pyrazolo[3,4-c]pyridin-4-yl)pyridin-3-yl)phenyl)pyrrolidin-2-one], the IC50 in assay [1] was in the range of 0.1 to 1 µM; in assay [2], 0.1 to 1 µM; in assay [3], 0.005 to 0.1 µM.
For `O=C1CCCN1c1ccc(-c2cncc(-c3cnc4nccn4c3)c2)cc1` [Example 275, 1-(4-(5-(imidazo[1,2-a]pyrimidin-6-yl)pyridin-3-yl)phenyl)pyrrolidin-2-one], the IC50 in assay [1] was 2.5 to 5 µM; in assay [2], 0.1 to 1 µM; in assay [3], 0.1 to 1 µM.
`O=C(NCc1ccc2c(c1)COB2O)c1cc2c(-c3cncc(-c4ccc(N5CCCC5=O)cc4)c3)ccnc2[nH]1` [Example 276, N-((1-hydroxy-1,3-dihydrobenzo[c][1,2]oxaborol-5-yl)methyl)-4-(5-(4-(2-oxopyrrolidin-1-yl)phenyl)pyridin-3-yl)-1H-pyrrolo[2,3-b]pyridine-2-carboxamide]: the IC50 in assay [1] fell in the range of 0.01 to 0.1 µM; in assay [2], 0.1 to 1 µM; in assay [3], 0.005 to 0.1 µM.
On the same counts, the results for `COC(=O)c1cc2c(-c3cncc(-c4ccc(N5CCCC5=O)cc4)c3)ccnc2[nH]1` [Example 302, methyl 4-(5-(4-(2-oxopyrrolidin-1-yl)phenyl)pyridin-3-yl)-1H-pyrrolo[2,3-b]pyridine-2-carboxylate] are 0.01 to 0.1 µM, 0.01 to 0.1 µM and 0.005 to 0.1 µM.
The like results for `CN1CCn2c(cc3c(-c4cncc(-c5ccc(N6CCCCCC6=O)cc5)c4)ccnc32)C1=O` [Example 345, 7-methyl-4-(5-(4-(2-oxoazepan-1-yl)phenyl)pyridin-3-yl)-8,9-dihydropyrido[3′,2′:4,5]pyrrolo[1,2-a]pyrazin-6(7H)-one] were, in that order, 0.01 to 0.1 µM, 0.1 to 1 µM and 0.1 to 1 µM.
The like results for `CN1CCn2c(cc3c(-c4cncc(-c5ccc(N6CCCCC6=O)cc5)c4)ccnc32)C1=O` [Example 346, 7-methyl-4-(5-(4-(2-oxopiperidin-1-yl)phenyl)pyridin-3-yl)-8,9-dihydropyrido[3′,2′:4,5]pyrrolo[1,2-a]pyrazin-6(7H)-one] were, in that order, 0.1 to 1 µM, 0.1 to 1 µM and 0.1 to 1 µM.
With `CN1CCn2c(cc3c(-c4cncc(-c5ccc(C(=O)N6CCCCC6)cc5)c4)ccnc32)C1=O` [Example 354, 7-methyl-4-(5-(4-(piperidine-1-carbonyl)phenyl)pyridin-3-yl)-8,9-dihydropyrido[3′,2′:4,5]pyrrolo[1,2-a]pyrazin-6(7H)-one], the results for the IC50 in assay [1], in assay [2] and in assay [3] were 0.01 to 0.1 µM, 0.1 to 1 µM and 0.1 to 1 µM, respectively.
Take `Cn1cc(-c2cnc(N)nc2)c2cc(-c3cncc(-c4ccc(N5CCCC5=O)cc4)c3)cnc21` [Example 355, 1-(4-(5-(3-(2-aminopyrimidin-5-yl)-1-methyl-1H-pyrrolo[2,3-b]pyridin-5-yl)pyridin-3-yl)phenyl)pyrrolidin-2-one]: the IC50 in assay [1] fell in the range of 0.1 to 1 µM; in assay [2] it was 0.01 to 0.1 µM; in assay [3], 0.005 to 0.1 µM.
The like results for `CC(C)n1cnnc1-c1ccc(-c2cncc(-c3ccnc4c3cc3n4CCN(C)C3=O)c2)cc1` [Example 384, 4-(5-(4-(4-isopropyl-4H-1,2,4-triazol-3-yl)phenyl)pyridin-3-yl)-7-methyl-8,9-dihydropyrido[3′,2′:4,5]pyrrolo[1,2-a]pyrazin-6(7H)-one] were, in that order, 0.01 to 0.1 µM, 0.1 to 1 µM and 0.1 to 1 µM.
